Among the data in PubChem BioAssay (NCI) are TGI and GI50 values, retold here.

Test systems include ACHN renal; COLO 205 colon; DMS 114 small cell lung; HOP-92 NSCLC; A549 NSCLC; IGROV1 ovarian; SNB-78 CNS; HCT-116 colon; HOP-18 NSCLC; NCI-H226 lung.
Common to all, as to test: NCI tumour cell line growth inhibition, 48 h

Where “and” joins values, the source holds several entries; their conditions need not be identical. Equal values may be shown once.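 Assay format: 96-well plates, 48-hour exposure. The concentration for 50% growth inhibition is given as GI50. TGI: concentration producing complete growth inhibition.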

`O=C(CC(=O)c1cccc2ccccc12)C(=O)Nc1ccc(Cl)cc1`: the TGI with ACHN renal, in the assay with COLO 205 colon, in the assay with DMS 114 small cell lung, in the assay with HOP-92 NSCLC, in the assay on A549 NSCLC and with IGROV1 ovarian was over 100 µM each time. Also, the TGI in the assay on SNB-78 CNS, in the assay on HCT-116 colon, with HOP-18 NSCLC and in the assay on NCI-H226 lung was over 100 µM throughout.

Turning to `COc1ccccc1N1C(=O)C2c3[nH]c4ccccc4c3C3CCC(C(C)(C)C)CC3C2C1=O` (stereo unspecified), the TGI in the assay with ACHN renal, in the assay with COLO 205 colon, in the assay on DMS 114 small cell lung, in the assay with HOP-92 NSCLC, in the assay with A549 NSCLC and in the assay on IGROV1 ovarian was over 100 µM each time. Besides, the TGI in the assay with SNB-78 CNS, in the assay with HCT-116 colon, in the assay with HOP-18 NSCLC and in the assay on NCI-H226 lung was over 100 µM each time.

Regarding `CC1(C(=O)O)CCC[C@@]2(C)C1CC[C@@]1(C)c3cocc3CCC21` (stereo partly specified), the TGI in the assay with ACHN renal, in the assay on COLO 205 colon, in the assay with DMS 114 small cell lung, in the assay on HOP-92 NSCLC, in the assay with A549 NSCLC and with IGROV1 ovarian was over 100 µM throughout. In addition, the TGI with SNB-78 CNS, with HCT-116 colon, with HOP-18 NSCLC and with NCI-H226 lung was over 100 µM throughout.

As to `Cc1c(C(=O)CC(=O)C(=O)Nc2ccccc2C(F)(F)F)[n+](=O)c2ccccc2n1[O-]`, the TGI is over 100 µM with ACHN renal; 32.2 µM in the assay with COLO 205 colon; 25.2 µM with DMS 114 small cell lung; 60.1 µM in the assay on HOP-92 NSCLC; 75.6 µM in the assay with A549 NSCLC; 47.5 µM with IGROV1 ovarian. In addition, the TGI in the assay with SNB-78 CNS was over 100 µM; with HCT-116 colon it was 28.3 µM; in the assay with HOP-18 NSCLC, 37 µM; in the assay with NCI-H226 lung it was over 100 µM.

Consider `NC1=NCCC1(c1ccccc1)c1ccccn1` (stereo unspecified), for which the TGI in the assay on ACHN renal, in the assay with COLO 205 colon, in the assay on DMS 114 small cell lung, with HOP-92 NSCLC, in the assay with A549 NSCLC and with IGROV1 ovarian was over 100 µM throughout. Besides, the TGI in the assay on SNB-78 CNS, with HCT-116 colon, in the assay with HOP-18 NSCLC and with NCI-H226 lung was over 100 µM throughout.

On to `COC(=O)/C(C#N)=C1\NC(=O)c2ccccc21`, for which the TGI in the assay on ACHN renal, in the assay with COLO 205 colon, in the assay on DMS 114 small cell lung, in the assay with HOP-92 NSCLC, with A549 NSCLC and in the assay with IGROV1 ovarian was over 100 µM throughout. The TGI with SNB-78 CNS, in the assay on HCT-116 colon, in the assay with HOP-18 NSCLC and in the assay with NCI-H226 lung was over 100 µM in each case.

As for `CCCCCCCCCCCC(=O)OCCOCCOCCOCCOCCOCc1ccccc1`, the TGI in the assay on ACHN renal, in the assay on COLO 205 colon, with DMS 114 small cell lung, with HOP-92 NSCLC, with A549 NSCLC and in the assay on IGROV1 ovarian was over 100 µM throughout. The TGI in the assay with SNB-78 CNS, in the assay with HCT-116 colon, in the assay on HOP-18 NSCLC and in the assay with NCI-H226 lung was over 100 µM each time.

With `O=C(Nc1ccccc1)c1c(O)[nH]c(=S)[nH]c1=O`, the TGI with ACHN renal is 78.7 µM; in the assay with COLO 205 colon, 64.1 µM and 105 µM; in the assay with DMS 114 small cell lung it was 69 µM; in the assay on HOP-92 NSCLC, 45.1 µM; in the assay with A549 NSCLC, 82.6 µM and 147 µM; in the assay with IGROV1 ovarian, 97.1 µM and > 250 µM. Besides, the TGI in the assay with SNB-78 CNS was 124 µM and > 250 µM; with HCT-116 colon, 111 µM and > 250 µM; with HOP-18 NSCLC it was 118 µM and 184 µM; in the assay with NCI-H226 lung, 107 µM. Moreover, the GI50 in the assay with COLO 205 colon was 39.3 µM; in the assay on A549 NSCLC, 36.7 µM; in the assay on IGROV1 ovarian, 45.9 µM; in the assay on SNB-78 CNS, 97.7 µM; in the assay on HCT-116 colon, 58.6 µM; in the assay on HOP-18 NSCLC it was 17.3 µM.

For `Cc1cnc(NCCCN(C)C)c2c1[nH]c1ccc3cc(O)ccc3c12`, the TGI worked out at 4.89 µM with ACHN renal; 1.57 µM in the assay on COLO 205 colon; 0.993 µM with DMS 114 small cell lung; 1.31 µM in the assay with HOP-92 NSCLC; 2.5 µM in the assay on A549 NSCLC; 4.6 µM with IGROV1 ovarian. The TGI with SNB-78 CNS is 3.86 µM; with HCT-116 colon, 1.44 µM; in the assay on HOP-18 NSCLC, 5.97 µM; with NCI-H226 lung it was 1.73 µM.

As for `O=C(CCc1nc(=S)[nH][nH]1)Nc1ccc(Cl)c(Cl)c1`, the TGI in the assay on ACHN renal, with COLO 205 colon, in the assay with DMS 114 small cell lung, in the assay with HOP-92 NSCLC, with A549 NSCLC and in the assay on IGROV1 ovarian was over 100 µM each time. Besides, the TGI in the assay with SNB-78 CNS, in the assay with HCT-116 colon, with HOP-18 NSCLC and in the assay on NCI-H226 lung was over 100 µM in each case.

With `COc1cc2cc(OC)c3cc4c(cc3c2c(OC)c1OC)OCO4`, the TGI with ACHN renal was over 100 µM; in the assay with COLO 205 colon, 44.4 µM; with DMS 114 small cell lung it was over 100 µM; in the assay with HOP-92 NSCLC it was over 93.3 µM; in the assay with A549 NSCLC, over 95.8 µM; in the assay on IGROV1 ovarian, over 100 µM. For the same compound, the TGI with SNB-78 CNS is over 100 µM; in the assay on HCT-116 colon, over 84.4 µM; in the assay on HOP-18 NSCLC, over 100 µM; in the assay on NCI-H226 lung, over 100 µM.
